Experiments:
[1] = target: T1, Inhibitor of nuclear factor kappa-B kinase subunit epsilon (Homo sapiens) (UniProt Q14164); experiment: Residual activity of IKKepsilon at 0.1 uM by microplate scintillation counting
T1 sequence (whole entry): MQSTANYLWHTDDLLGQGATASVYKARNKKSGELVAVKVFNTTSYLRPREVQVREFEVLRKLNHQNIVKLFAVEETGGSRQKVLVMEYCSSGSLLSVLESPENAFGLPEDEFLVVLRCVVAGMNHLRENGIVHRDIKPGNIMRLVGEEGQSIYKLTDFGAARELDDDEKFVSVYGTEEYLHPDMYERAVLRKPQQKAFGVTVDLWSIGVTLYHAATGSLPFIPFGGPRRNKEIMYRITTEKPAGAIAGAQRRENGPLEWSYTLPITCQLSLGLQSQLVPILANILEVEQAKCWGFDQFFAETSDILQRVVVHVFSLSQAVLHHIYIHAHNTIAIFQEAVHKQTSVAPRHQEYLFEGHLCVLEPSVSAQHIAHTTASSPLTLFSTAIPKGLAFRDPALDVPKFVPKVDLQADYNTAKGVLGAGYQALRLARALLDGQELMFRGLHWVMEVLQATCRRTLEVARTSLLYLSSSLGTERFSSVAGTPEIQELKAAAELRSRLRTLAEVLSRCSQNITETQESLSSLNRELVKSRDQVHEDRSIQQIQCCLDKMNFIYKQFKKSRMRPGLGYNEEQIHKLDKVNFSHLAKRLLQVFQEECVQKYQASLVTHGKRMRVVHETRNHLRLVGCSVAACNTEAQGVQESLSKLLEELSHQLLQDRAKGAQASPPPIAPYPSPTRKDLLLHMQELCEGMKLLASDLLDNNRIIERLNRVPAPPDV

[2] = target: Tyrosine-protein kinase Lck (Homo sapiens) (UniProt P06239); experiment: Residual activity of LCK at 0.1 uM by microplate scintillation counting
Sequence of Tyrosine-protein kinase Lck (Homo sapiens) (P06239 2-509 limits assumed): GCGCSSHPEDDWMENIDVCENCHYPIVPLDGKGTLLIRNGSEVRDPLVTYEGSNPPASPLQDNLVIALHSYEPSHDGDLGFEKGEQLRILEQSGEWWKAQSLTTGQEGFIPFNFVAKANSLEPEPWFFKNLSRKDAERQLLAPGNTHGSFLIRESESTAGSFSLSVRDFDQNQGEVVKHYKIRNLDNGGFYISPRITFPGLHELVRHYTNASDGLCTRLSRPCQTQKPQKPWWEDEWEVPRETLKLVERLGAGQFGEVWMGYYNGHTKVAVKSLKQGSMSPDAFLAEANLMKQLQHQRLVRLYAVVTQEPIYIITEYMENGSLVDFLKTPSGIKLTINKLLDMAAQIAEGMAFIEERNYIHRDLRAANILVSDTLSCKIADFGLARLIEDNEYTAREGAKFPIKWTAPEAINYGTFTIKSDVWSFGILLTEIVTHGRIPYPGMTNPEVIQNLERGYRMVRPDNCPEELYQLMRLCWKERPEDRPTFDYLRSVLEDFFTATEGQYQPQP

[3] = system: T2, Dual specificity mitogen-activated protein kinase kinase 6 (Homo sapiens), P52564 [S207D,T211D]; experiment: Residual activity of MKK6 S207D/T211D mutant at 0.1 uM by microplate scintillation counting
T2 sequence (whole entry): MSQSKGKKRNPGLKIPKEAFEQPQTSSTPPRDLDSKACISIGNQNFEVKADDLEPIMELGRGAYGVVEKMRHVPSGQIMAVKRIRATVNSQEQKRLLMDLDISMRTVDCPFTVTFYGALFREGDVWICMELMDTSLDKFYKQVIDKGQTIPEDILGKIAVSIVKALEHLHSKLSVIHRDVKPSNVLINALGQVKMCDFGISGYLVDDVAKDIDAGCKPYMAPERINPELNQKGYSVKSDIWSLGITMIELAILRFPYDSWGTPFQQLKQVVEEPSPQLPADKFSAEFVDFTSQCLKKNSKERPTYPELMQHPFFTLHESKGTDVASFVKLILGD

[4] = target: Tyrosine-protein kinase Lyn (Homo sapiens) (UniProt P07948); experiment: Residual activity of LYN at 1 uM by microplate scintillation counting
Sequence of Tyrosine-protein kinase Lyn (Homo sapiens) (P07948 2-512 limits assumed): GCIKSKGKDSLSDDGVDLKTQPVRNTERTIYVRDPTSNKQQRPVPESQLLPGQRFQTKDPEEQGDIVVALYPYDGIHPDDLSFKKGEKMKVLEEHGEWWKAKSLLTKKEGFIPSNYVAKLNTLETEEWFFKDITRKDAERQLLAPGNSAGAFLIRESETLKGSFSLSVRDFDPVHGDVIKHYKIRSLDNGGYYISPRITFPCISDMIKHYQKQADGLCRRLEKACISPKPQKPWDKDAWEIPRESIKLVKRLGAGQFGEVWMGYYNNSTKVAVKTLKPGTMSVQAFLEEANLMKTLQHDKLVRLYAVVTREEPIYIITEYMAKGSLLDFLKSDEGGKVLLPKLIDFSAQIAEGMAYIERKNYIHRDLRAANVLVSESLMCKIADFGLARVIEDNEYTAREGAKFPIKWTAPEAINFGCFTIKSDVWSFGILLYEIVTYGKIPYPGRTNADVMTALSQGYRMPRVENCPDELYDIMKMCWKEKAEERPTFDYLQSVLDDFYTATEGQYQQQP

[5] = target: Cyclin-dependent kinase 5/CDK5 activator 1 (Homo sapiens) (UniProt Q00535+Q15078); experiment: Residual activity of CDK5/p35NCK at 10 uM by microplate scintillation counting; format: protein-complex assay
Sequence of Cyclin-dependent kinase 5/CDK5 activator 1 (Homo sapiens) (Q00535 whole entry): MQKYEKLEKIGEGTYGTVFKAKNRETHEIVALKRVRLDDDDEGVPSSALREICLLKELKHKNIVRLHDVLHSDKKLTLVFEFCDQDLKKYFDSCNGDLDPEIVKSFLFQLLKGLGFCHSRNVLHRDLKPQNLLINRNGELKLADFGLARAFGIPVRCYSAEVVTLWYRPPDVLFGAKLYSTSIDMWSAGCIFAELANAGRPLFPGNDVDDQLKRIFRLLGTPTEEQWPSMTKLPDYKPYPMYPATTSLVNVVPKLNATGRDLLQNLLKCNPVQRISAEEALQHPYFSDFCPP
Sequence of Cyclin-dependent kinase 5/CDK5 activator 1 (Homo sapiens) (Q15078 99-307 partner limits assumed): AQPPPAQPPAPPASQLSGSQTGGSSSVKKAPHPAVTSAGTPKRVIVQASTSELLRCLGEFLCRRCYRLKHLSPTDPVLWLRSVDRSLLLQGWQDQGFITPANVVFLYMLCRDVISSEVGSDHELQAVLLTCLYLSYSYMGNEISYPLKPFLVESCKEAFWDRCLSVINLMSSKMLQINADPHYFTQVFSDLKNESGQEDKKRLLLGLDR

[6] = target: T3, Ephrin type-A receptor 1 (Homo sapiens) (UniProt P21709); experiment: Residual activity of EPHA1 at 0.1 uM by microplate scintillation counting
T3 sequence (whole entry): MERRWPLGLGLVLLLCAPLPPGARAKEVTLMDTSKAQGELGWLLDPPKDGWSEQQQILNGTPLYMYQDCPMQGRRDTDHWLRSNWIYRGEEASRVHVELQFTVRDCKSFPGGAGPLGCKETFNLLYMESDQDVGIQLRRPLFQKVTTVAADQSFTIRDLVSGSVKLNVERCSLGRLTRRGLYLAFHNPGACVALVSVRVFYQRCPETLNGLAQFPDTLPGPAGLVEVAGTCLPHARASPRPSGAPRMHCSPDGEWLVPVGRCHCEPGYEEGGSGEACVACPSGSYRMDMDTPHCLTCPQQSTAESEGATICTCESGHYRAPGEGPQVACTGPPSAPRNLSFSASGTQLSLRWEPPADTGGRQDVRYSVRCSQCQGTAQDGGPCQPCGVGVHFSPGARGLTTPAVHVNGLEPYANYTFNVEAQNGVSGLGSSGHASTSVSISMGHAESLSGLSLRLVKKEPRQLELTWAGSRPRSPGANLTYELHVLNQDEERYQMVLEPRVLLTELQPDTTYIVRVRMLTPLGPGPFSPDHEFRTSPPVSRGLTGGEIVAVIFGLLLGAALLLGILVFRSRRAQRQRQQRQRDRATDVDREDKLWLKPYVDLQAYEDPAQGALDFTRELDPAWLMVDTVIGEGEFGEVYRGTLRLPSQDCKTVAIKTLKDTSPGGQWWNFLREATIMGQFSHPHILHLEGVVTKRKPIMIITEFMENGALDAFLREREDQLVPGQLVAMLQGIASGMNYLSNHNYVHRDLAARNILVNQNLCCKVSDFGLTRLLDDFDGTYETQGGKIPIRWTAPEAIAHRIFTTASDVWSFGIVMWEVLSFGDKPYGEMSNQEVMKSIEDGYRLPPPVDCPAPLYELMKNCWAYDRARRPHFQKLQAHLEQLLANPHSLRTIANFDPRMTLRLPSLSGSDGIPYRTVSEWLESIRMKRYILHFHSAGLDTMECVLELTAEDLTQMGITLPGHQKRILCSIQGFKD

[7] = target: Misshapen-like kinase 1 (Homo sapiens) (UniProt Q8N4C8); experiment: Residual activity of MINK1 at 10 uM by microplate scintillation counting
Sequence of Misshapen-like kinase 1 (Homo sapiens) (Q8N4C8 whole entry, looked up): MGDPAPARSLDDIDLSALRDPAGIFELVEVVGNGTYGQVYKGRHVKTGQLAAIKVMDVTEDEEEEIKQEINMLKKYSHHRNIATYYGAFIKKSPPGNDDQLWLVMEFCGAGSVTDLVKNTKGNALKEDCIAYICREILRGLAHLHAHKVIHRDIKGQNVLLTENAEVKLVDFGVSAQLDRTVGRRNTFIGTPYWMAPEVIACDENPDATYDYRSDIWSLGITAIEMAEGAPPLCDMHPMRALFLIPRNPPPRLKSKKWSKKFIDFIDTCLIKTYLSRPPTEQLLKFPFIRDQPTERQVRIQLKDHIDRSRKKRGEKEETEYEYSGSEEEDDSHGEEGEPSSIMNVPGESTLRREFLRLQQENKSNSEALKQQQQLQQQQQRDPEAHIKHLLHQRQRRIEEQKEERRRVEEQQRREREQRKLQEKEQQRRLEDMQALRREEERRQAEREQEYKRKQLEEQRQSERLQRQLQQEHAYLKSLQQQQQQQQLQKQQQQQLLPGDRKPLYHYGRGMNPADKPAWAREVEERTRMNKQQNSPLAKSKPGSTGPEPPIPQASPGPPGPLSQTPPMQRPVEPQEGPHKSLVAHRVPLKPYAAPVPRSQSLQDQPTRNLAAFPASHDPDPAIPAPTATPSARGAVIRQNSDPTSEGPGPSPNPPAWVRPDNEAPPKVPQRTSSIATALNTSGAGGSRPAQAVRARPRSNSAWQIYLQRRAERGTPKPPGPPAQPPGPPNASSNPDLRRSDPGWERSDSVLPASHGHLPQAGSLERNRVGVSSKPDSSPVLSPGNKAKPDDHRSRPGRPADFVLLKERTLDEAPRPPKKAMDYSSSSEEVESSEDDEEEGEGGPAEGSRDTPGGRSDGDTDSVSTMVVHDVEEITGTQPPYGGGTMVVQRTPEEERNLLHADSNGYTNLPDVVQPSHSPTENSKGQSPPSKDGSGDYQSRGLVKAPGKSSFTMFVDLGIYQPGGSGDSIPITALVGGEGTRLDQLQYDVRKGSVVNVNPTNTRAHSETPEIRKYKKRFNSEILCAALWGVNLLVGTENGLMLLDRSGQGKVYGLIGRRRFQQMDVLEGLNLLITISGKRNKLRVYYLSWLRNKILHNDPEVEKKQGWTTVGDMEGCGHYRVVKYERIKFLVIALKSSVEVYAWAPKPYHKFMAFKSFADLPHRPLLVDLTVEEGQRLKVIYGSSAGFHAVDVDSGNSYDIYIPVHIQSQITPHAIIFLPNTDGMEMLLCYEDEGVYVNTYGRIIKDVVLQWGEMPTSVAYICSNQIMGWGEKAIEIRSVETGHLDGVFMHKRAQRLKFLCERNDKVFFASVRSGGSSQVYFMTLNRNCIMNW

[8] = target: T4, Protein kinase C zeta type (Homo sapiens) (UniProt Q05513); experiment: Residual activity of PKCzeta at 10 uM by microplate scintillation counting
T4 sequence (whole entry): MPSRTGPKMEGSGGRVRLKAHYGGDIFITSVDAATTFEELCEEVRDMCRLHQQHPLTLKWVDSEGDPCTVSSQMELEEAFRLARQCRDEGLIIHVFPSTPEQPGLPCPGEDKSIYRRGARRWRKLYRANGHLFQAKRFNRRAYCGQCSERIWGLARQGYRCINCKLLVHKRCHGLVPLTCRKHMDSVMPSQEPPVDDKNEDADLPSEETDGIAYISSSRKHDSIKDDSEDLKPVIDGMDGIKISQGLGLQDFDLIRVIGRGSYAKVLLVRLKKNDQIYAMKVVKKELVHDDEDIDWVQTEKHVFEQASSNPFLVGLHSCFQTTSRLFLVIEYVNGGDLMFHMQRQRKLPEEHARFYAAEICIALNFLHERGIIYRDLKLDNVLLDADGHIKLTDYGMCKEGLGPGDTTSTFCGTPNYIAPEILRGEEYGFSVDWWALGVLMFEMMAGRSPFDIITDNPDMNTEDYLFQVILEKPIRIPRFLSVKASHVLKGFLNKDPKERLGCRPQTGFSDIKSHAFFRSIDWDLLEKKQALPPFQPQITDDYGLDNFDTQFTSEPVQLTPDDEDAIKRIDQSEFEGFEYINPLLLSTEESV

Row | residual activity [1] [%] | residual activity [2] [%] | residual activity [3] [%] | residual activity [4] [%] | residual activity [5] [%] | residual activity [6] [%] | residual activity [7] [%] | residual activity [8] [%] | SMILES
1 | 92 | 104 | 72 | 119 | 98 | 102 | 36 | 64 | COc1cc2c(Oc3ccc(-c4nc5ccccc5s4)cc3)ncnc2cc1OCCCN1CCCC1
2 | 87 | 86 | 95 | 93 | 86 | 106 | 20 | 74 | COc1cc2c(Oc3ccc(-c4nc5ccccc5s4)cc3F)ncnc2cc1OCCCN1CCN(C)CC1
3 | 91 | 92 | 80 | 104 | 96 | 112 | 21 | 72 | COc1cc2c(Oc3ccc(-c4nc5ccccc5s4)cc3)ncnc2cc1OCCCN1CCN(C)CC1
